# Test results taken from paper PMC9354705, “Characterization of TR‐107, a novel chemical activator of the human mitochondrial protease ClpP” (Pharmacology Research & Perspectives, 2022).
# Like-named read-outs stand apart in the source and are kept apart here.
# Columns and labels:
# MDA‐MB‐231 cells [1] = experiment: Cell viability (total cell count, Hoechst stain) in MDA‐MB‐231 cells; type: cell-based, human; conditions: for IC50: Homo sapiens, MDA-MB-231, 72 h
# MDA‐MB‐231 cells [2] = experiment: Mitochondrial respiration analysis (Seahorse XF); type: cell-based, human; conditions: 24 h
# Description: Cellular oxygen consumption and extracellular acidification rates (OCR and ECAR, respectively) were measured using Seahorse XFe96 (Agilent). MDA‐MB‐231 cells were plated (15 000 cells/well) in Seahorse XF96 plates (Agilent, 102416‐100) and allowed to adhere overnight. Cells were then treated with 25 or 50 nM TR‐107 for 24 h. On the day of Seahorse XF analysis, the growth medium was replaced with an XF base medium (Agilent, 103575‐100) supplemented with appropriate concentrations of TR‐107. After measurement of basal OCR/ECAR, 1 μM Oligomycin, 1 μM FCCP, and 1 μM Rotenone/Antimycin A (Agilent, 103015‐100) were added at indicated time points. OCR/ECAR were measured every 6.5 min for 73 min.
# [3] = tested on: MDA‐MB‐231 or SUM159 cells; experiment: Time‐course total cell count in MDA‐MB‐231 or SUM159 cells; type: cell-based, human; conditions: up to 72 h, both cell lines, vs vehicle control
# Description: Total cell counting assays were performed by seeding MDA‐MB‐231 cells (WT and ClpP‐KO; 4000 cells/well) or SUM159 (WT and ClpP‐KO; 1000 cells/well) in a 96‐well plate (Perkin Elmer, 6005050) and allowed to adhere overnight. The growth medium was then aspirated and replaced with 100 μl of growth medium supplemented with the drug at concentrations indicated in the figure or figure legends. Cells treated with vehicle control (0.1% DMSO, Sigma‐Aldrich D2650) were used as a negative control in all experiments, and cells were incubated with drug‐containing media for 24, 48, or 72 h as indicated in figure legends. Media was then aspirated and replaced with 100 μl Dulbecco's phosphate‐buffered saline (DPBS Gibco, 14190‐144) containing 1 μg/ml Hoechst stain (ThermoFischer Scientific, H3570) and allowed to incubate at 37°C for 30 min. The total cell number was then quantified using the Celigo Imaging Cytometer (Nexcelom).
# [4] = Protein binding to plasma proteins (equilibrium dialysis); type: in vitro ADME; conditions: mouse plasma, read-out: serum‐free fraction
# Description: Protein‐binding studies were performed by Eurofins Panlabs, Inc. This assay utilizes equilibrium dialysis in a microplate format, as previously described.[47] Briefly, this analysis is used to determine the bound and unbound fraction of the drug and calculate the percentage of the test compound binding to murine plasma proteins.
# [5] = tested on: MDA‐MB‐231 and SUM159 cells; experiment: Immunoblotting for mitochondrial proteins; type: cell-based, human
# Description: Cell lysates were clarified and immunoblotted as described earlier.[45] Membranes were incubated with primary antibodies (Appendix S1) diluted 1:1000 in 1% fish gelatin (Sigma‐Aldrich, G7041)/TBST overnight at 4°C, removed, washed 3 × 5 min in TBST, and placed in their respective 2° antibodies (1:10 000 dilution in 5% milk/TBST) for 1 h. […] Acquired images were processed/quantified using Image Lab software (BioRad) or Image Studio Lite (LI‐COR).
# [6] = 100 nM TR‐107, 150 nM TR‐57, or 10 μM ONC201
structure (smiles),measurement,setting,value
N#Cc1cccc(CN2CCc3ncn(Cc4ccc(Cl)cc4)c(=O)c3C2)c1 [TR‐107],IC50,"MDA‐MB‐231 cells [1]; WT cells, Hoechst stain, mean N = 3, read-out: IC50 (nM) MDA-MB-231",23 nM
same,IC50,"MDA‐MB‐231 cells [1]; media containing galactose, read-out: IC50 (nM) Galactose",9.8 nM
same,IC50,"MDA‐MB‐231 cells [1]; media containing glucose, read-out: IC50 (nM) Glucose",19 nM
same,shift of growth inhibition dose–response (IC50) glucose to galactose,"MDA‐MB‐231 cells [1]; galactose instead of glucose, MDA‐MB‐231, 72 h",~ 2 fold
same,decline in oxygen consumption rate (OCR),"MDA‐MB‐231 cells [2]; ClpP‐KO MDA‐MB‐231, 25, 50 nM",not observed
same,extracellular acidification (ECAR),"MDA‐MB‐231 cells [2]; MDA‐MB‐231, 25, 50 nM",dose‐dependent increase
same,oxygen consumption rate (OCR),"MDA‐MB‐231 cells [2]; WT MDA‐MB‐231, 25, 50 nM",dose‐dependent decline
same,concentrations inhibiting the increase in cell number,[3],> 10 nM
same,fraction unbound,[4],0.1
same,TUFM and TFAM protein levels by 24 h,[5]; [6],complete or near‐complete loss
same,time at which TUFM and TFAM protein levels began to decline,[5]; [6],~ 6 h
same,HSP60 levels,"[5]; MDA‐MB‐231 cells, 100 nM",significantly reduced in a time‐dependent manner
